What all share (experiment): KinomeScan profiling
Holding throughout (type): binding

The target in one assay is T1, GCN2(Kin.Dom.2, S808G) (Homo sapiens, UniProt Q9P2K8, S808G).
T1 construct: GCN2(Kin.Dom.2, S808G)
T1 sequence (Q9P2K8 590-1001 S808G limits assumed): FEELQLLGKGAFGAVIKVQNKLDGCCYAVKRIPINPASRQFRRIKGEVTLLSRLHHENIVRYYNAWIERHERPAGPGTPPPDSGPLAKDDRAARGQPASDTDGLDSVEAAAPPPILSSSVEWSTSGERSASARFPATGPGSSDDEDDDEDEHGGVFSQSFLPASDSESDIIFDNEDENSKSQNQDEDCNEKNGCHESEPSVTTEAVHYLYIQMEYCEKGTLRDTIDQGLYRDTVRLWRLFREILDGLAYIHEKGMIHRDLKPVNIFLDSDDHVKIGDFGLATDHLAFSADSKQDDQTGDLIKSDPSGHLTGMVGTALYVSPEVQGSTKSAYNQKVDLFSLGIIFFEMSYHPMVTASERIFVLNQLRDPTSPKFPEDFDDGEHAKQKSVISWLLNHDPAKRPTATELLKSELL
To be noted: read-out: % control. Put shortly: (§1)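 Selectivity was assessed by binding competition at 1 μM against 468 kinases. Values below 35% of control define an interaction.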

The target in the next assay is EGFR(T790M) (Homo sapiens, UniProt P00533, T790M). To be noted: read-out: % control. An outline of the steps: as §1
The target of a further assay is EPHA5 (Homo sapiens, UniProt P54756). Conditions: EPHA5, 1 μM; read-out: % control. An outline of the steps: as §1
The target in the next assay is T2, MAP3K3 (Homo sapiens, UniProt Q99759).
T2 sequence (Q99759 1-626): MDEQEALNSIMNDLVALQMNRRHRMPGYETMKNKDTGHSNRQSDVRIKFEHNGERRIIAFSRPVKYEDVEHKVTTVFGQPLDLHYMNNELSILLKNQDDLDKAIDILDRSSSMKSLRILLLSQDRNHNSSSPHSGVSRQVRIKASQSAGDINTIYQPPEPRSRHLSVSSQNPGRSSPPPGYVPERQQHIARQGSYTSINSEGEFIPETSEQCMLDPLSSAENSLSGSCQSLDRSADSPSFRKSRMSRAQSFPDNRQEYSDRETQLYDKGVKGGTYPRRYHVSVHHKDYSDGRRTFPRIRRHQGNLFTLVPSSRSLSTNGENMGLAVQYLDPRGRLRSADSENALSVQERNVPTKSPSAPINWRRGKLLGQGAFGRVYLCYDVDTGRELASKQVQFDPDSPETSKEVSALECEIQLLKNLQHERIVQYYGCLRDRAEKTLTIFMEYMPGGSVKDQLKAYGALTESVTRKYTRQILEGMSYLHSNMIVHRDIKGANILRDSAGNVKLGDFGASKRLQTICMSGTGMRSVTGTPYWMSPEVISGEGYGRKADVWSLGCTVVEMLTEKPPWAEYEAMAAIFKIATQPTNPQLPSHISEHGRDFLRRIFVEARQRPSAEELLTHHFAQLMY
To be noted: MAP3K3, 1 μM; read-out: % control. Put shortly:
as §1

The target of another assay is T3, PIK3CG (Homo sapiens, UniProt P48736).
T3 construct: purchased KinomeScan® (panel service)
To be noted: read-out: % control. Put shortly: as §1

For the next assay, the target named is ERK3 (Homo sapiens, UniProt Q16659). Conditions: ERK3, 1 μM; read-out: % control. Put shortly: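 Luminescence (RLU) was converted to percent of control, with DMSO set as 100% and a reference compound as 0%. Test compounds were run at 1 μM against 468 kinases. Kinases showing below 35% of control were scored as bound.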
The target of the next assay is T4, STK35 (Homo sapiens, UniProt Q8TDR2).
T4 construct: purchased KinomeScan® (panel service)
To be noted: STK35, 1 μM; read-out: % control. Put shortly:
as §1

In a further assay the target is LIMK2 (Homo sapiens, UniProt P53671). Conditions: LIMK2, 1 μM; read-out: % control. Put shortly:
as §1

In a further assay the target is T5, SNRK (Homo sapiens, UniProt Q9NRH2).
T5 construct: purchased KinomeScan® (panel service)
T5 sequence (Q9NRH2 1-765): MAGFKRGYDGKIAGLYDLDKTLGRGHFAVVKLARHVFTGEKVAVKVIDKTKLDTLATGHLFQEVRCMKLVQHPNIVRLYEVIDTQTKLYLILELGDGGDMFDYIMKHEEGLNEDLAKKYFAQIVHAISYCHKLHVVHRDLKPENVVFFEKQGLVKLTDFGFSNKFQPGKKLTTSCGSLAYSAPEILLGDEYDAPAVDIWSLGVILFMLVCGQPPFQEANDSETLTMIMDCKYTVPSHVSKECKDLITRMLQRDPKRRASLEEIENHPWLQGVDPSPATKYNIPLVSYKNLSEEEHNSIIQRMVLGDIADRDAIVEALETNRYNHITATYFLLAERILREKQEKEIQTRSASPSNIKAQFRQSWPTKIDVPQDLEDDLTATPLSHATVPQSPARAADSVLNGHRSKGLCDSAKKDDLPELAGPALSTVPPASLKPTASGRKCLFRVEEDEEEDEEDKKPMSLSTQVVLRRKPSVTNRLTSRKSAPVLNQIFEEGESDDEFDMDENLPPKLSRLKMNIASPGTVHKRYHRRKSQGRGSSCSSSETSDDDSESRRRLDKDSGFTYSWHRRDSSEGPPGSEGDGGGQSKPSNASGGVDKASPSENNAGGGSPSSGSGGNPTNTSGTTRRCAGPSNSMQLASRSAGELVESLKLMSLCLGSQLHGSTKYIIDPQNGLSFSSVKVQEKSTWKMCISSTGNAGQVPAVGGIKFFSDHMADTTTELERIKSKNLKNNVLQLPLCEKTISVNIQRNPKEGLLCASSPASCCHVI
To be noted: read-out: % control. An outline of the steps: as §1

The source of these data is patent publication US12275731B2, “Azaindole inhibitors of wild-type and mutant forms of LRRK2” (DANA-FARBER CANCER INSTITUTE, INC., priority 2018, dated 2025).

Sequence of LIMK2 (P53671 whole entry): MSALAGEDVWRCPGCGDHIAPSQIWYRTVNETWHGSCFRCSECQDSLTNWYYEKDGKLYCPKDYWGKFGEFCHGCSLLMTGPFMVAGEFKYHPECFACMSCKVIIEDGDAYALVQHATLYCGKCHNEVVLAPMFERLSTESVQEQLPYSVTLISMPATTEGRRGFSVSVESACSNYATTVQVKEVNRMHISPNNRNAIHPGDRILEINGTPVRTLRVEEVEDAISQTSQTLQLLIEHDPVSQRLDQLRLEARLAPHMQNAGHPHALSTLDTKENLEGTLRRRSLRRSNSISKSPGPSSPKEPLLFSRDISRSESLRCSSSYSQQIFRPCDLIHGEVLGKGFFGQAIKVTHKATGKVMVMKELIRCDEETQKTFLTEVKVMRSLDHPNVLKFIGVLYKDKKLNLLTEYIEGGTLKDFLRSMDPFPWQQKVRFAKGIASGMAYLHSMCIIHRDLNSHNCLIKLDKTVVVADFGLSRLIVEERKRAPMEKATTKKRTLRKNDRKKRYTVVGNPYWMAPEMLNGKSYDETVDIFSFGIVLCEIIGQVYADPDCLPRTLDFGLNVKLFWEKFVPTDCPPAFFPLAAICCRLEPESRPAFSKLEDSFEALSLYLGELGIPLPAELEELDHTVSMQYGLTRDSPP
Sequence of EGFR(T790M) (P00533 25-1210 T790M): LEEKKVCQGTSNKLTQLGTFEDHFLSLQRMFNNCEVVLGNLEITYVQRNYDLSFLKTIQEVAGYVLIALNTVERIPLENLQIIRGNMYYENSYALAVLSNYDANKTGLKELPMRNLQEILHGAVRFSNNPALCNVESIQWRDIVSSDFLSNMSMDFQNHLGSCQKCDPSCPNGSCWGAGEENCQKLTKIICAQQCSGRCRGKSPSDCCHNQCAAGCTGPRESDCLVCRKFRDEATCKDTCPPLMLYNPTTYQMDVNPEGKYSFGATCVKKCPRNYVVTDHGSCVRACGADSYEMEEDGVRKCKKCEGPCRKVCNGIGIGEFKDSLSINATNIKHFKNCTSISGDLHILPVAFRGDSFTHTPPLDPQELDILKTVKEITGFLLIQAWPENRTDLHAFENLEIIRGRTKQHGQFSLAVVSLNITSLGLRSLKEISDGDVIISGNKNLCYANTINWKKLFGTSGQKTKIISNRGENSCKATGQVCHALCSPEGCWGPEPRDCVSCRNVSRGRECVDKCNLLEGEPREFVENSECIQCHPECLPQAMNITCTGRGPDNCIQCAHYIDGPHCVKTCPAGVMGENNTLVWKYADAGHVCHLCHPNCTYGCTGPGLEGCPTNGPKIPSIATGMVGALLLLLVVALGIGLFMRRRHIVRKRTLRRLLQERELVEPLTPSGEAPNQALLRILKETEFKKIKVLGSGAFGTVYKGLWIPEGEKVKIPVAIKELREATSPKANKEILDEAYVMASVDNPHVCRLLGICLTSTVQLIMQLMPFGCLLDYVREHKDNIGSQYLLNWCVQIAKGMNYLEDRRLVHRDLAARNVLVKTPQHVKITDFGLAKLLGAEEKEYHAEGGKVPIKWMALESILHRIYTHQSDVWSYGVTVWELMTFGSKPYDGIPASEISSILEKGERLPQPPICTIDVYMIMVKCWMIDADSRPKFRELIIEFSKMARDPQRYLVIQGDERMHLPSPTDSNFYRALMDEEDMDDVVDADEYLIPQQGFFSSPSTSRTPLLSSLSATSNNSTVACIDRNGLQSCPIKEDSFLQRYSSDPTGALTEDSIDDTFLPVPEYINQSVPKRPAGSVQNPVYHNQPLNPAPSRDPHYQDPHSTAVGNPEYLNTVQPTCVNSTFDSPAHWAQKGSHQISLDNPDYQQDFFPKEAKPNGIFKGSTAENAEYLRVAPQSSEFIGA
T3 sequence (P48736 whole entry): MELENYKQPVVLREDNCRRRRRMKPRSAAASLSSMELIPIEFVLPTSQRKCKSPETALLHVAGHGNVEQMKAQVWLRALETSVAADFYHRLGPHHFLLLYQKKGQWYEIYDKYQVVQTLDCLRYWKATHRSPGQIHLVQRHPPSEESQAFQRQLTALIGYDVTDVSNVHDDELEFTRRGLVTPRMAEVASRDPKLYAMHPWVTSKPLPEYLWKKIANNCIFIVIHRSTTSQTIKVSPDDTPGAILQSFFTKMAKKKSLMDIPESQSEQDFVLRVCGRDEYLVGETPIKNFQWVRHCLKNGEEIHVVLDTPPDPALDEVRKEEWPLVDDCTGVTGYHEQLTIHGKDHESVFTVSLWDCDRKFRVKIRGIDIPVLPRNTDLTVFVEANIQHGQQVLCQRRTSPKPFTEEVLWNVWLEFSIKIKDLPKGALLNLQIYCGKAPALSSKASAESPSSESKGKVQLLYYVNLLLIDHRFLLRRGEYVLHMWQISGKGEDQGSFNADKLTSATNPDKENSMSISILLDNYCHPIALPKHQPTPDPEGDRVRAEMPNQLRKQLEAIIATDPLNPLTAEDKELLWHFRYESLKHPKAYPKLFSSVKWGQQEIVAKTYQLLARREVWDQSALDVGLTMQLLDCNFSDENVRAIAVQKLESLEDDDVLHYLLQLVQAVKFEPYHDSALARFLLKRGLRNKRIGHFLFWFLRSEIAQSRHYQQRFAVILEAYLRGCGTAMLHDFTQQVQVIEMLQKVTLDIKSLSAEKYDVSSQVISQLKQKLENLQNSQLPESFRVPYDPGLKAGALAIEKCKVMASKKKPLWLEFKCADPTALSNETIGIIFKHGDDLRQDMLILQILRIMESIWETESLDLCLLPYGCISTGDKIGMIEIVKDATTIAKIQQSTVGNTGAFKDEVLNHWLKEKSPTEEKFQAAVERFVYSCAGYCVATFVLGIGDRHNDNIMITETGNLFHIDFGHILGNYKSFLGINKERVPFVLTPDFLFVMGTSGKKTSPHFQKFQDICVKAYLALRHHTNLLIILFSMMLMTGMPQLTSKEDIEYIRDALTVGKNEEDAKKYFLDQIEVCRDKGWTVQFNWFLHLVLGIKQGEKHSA
Sequence of ERK3 (Q16659 whole entry): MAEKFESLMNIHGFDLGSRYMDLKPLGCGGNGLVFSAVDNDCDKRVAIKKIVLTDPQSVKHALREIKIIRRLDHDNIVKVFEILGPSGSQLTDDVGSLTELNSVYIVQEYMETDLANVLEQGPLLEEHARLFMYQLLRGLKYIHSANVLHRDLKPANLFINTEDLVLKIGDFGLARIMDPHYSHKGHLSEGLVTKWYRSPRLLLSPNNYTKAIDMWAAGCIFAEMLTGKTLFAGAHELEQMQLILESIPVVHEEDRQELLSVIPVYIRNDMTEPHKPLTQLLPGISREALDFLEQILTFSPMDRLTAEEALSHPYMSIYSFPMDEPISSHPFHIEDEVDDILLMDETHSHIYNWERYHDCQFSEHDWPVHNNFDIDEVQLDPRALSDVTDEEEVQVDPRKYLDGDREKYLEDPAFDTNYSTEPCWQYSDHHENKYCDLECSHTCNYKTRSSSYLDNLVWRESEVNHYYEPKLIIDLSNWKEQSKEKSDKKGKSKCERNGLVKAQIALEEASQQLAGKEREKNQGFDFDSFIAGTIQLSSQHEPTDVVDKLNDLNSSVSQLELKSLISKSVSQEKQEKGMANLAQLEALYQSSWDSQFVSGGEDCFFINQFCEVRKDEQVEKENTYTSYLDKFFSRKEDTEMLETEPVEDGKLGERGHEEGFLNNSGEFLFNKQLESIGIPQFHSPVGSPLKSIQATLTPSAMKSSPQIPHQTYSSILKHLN
Sequence of EPHA5 (P54756 25-1037): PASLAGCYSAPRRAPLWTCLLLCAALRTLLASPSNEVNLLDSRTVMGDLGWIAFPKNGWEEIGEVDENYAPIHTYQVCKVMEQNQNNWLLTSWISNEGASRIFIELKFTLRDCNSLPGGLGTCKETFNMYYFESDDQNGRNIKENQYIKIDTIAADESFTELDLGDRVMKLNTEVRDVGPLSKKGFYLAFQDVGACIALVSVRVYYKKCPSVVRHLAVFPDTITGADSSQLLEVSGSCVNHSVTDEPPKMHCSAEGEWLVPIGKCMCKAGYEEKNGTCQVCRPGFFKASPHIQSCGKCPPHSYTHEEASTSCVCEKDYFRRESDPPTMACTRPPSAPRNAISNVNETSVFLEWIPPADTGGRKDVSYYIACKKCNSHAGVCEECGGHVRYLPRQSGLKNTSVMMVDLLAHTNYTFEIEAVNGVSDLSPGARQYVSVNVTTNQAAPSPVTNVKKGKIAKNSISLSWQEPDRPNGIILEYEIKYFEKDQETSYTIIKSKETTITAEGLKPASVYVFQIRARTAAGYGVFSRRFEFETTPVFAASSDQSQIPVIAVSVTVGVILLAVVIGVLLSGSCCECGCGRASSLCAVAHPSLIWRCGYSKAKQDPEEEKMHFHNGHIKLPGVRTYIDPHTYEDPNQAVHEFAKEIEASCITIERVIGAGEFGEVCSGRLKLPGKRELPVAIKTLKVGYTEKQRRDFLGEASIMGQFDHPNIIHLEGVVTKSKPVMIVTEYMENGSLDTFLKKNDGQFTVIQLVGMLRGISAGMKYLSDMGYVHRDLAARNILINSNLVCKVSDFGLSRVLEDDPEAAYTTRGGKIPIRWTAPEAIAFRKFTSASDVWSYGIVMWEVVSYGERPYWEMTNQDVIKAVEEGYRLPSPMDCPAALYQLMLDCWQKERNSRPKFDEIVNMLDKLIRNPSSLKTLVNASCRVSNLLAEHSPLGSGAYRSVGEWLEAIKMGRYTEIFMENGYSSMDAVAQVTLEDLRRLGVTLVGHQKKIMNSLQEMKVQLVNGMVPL

On to `CNc1c(-c2cnn([C@H]3CCN(C(C)=O)C[C@@H]3F)c2)cnc2[nH]cc(Cl)c12` [Compound 77, 1-((3S,4S)-4-(4-(3-chloro-4-(methylamino)-1H-pyrrolo[2,3-b]pyridin-5-yl)-1H-pyrazol-1-yl)-3-fluoropiperidin-1-yl)ethan-1-one], for which the remaining binding at 1 µM was determined as 34% on GCN2(Kin.Dom.2, S808G); 93% at EGFR(T790M); 96% on EPHA5; 44% at MAP3K3; 99% at PIK3CG; 87% on ERK3. Besides, the remaining binding at 1 µM came out at 63% on STK35, 97% at LIMK2 and 100% on SNRK.

For `CNc1c(-c2ccc(C(=O)N3CCC(N4CCOCC4)CC3)cc2)cnc2[nH]cc(Cl)c12` [Compound 96, (4-(3-chloro-4-(methylamino)-1H-pyrrolo[2,3-b]pyridin-5-yl)phenyl)(4-morpholinopiperidin-1-yl)methanone], the remaining binding at 1 µM came out at 54% on GCN2(Kin.Dom.2, S808G); 83% on EGFR(T790M); 100% at EPHA5; 51% at MAP3K3; 100% on PIK3CG; 85% at ERK3. Also, the remaining binding at 1 µM at STK35 was 50%; on LIMK2 it was 100%; at SNRK it was 100%.

`O=C(c1ccc(-c2cnc3[nH]cc(Cl)c3c2NC2CCCC2)cc1)N1CCC(N2CCOCC2)CC1` [Compound 101, (4-(3-chloro-4-(cyclopentylamino)-1H-pyrrolo[2,3-b]pyridin-5-yl)phenyl)(4-morpholinopiperidin-1-yl)methanone]: the remaining binding at 1 µM at GCN2(Kin.Dom.2, S808G) was 100%; at EGFR(T790M), 100%; at EPHA5, 98%; on MAP3K3 it was 47%; at PIK3CG, 95%; on ERK3 it was 100%. In addition, the figures for the remaining binding at 1 µM on STK35, on LIMK2 and on SNRK were 99%, 99% and 100%, respectively.
